Data from ChEMBL document CHEMBL1201862, “PubChem BioAssay data set” (2004).
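Step 1: Grow cells in 96-well plates. Step 2: Expose to compound for 48 hours at 5 concentrations. Step 3: Interpolate endpoints linearly; if unreached, use highest concentration. Here, GI50 denotes the concentration required for 50% inhibition of growth.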 Activity calls are given as the source filed them. No stated cut-off is given here; in the data, active = GI50 up to about 1.1 µM and inactive = higher.

Key:
Assay in all cases: inhibition of tumour cell growth, NCI panel, 48 h
UACC-62 = tested on: UACC-62
SNB-75 = tested on: SNB-75
NCI-H460 = tested on: NCI-H460
IGROV-1 = tested on: IGROV-1
OVCAR-3 = tested on: OVCAR-3
A549 = tested on: A549
SK-MEL-5 = tested on: SK-MEL-5
KM12 = tested on: KM12
Malme-3M = tested on: Malme-3M
DLD-1 = tested on: DLD-1
SW-620 = tested on: SW-620
SF-539 = tested on: SF-539
TK-10 = tested on: TK-10
M19-MEL = tested on: M19-MEL
HOP-18 = tested on: HOP-18
ACHN = tested on: ACHN
HCT-116 = tested on: HCT-116
HCT-15 = tested on: HCT-15
HOP-92 = tested on: HOP-92
UO-31 = tested on: UO-31
OVCAR-4 = tested on: OVCAR-4
HL-60 = tested on: HL-60
HOP-62 = tested on: HOP-62
KM-20L2 = tested on: KM-20L2
SK-MEL-2 = tested on: SK-MEL-2
SK-OV-3 = tested on: SK-OV-3
786-0 = tested on: 786-0
NCI-H23 = tested on: NCI-H23
U-251 = tested on: U-251
XF498 = tested on: XF498
LOX IMVI = tested on: LOX IMVI
HT-29 = tested on: HT-29
K562 = tested on: K562
CCRF-CEM = tested on: CCRF-CEM
SK-MEL-28 = tested on: SK-MEL-28
LXFL 529 = tested on: LXFL 529
RXF 393 = tested on: RXF 393
SN12C = tested on: SN12C
EKVX = tested on: EKVX
HCC 2998 = tested on: HCC 2998
SF-295 = tested on: SF-295
OVCAR-5 = tested on: OVCAR-5
OVCAR-8 = tested on: OVCAR-8
UACC-257 = tested on: UACC-257
SR = tested on: SR
M14 = tested on: M14
MOLT-4 = tested on: MOLT-4
NCI-H522 = tested on: NCI-H522
SNB-19 = tested on: SNB-19
SNB-78 = tested on: SNB-78
A498 = tested on: A498
DMS-273 = tested on: DMS-273
RPMI-8226 = tested on: RPMI-8226
CAKI-1 = tested on: CAKI-1
SF-268 = tested on: SF-268
COLO 205 = tested on: COLO 205
NCI-H226 = tested on: NCI-H226
DMS-114 = tested on: DMS-114

O=[N+]([O-])C1(CO)COC(CCc2ccccc2)OC1 (centres undefined)
GI50 (UACC-62): > 100 µM (inactive)
GI50 (SNB-75): > 100 µM (inactive)
GI50 (NCI-H460): > 100 µM (inactive)
GI50 (IGROV-1): > 100 µM (inactive)
GI50 (OVCAR-3): > 100 µM (inactive)
GI50 (A549): > 100 µM (inactive)
GI50 (SK-MEL-5): > 100 µM (inactive)
GI50 (KM12): > 100 µM (inactive)
GI50 (Malme-3M): > 100 µM (inactive)
GI50 (DLD-1): > 100 µM (inactive)
GI50 (SW-620): > 100 µM (inactive)
GI50 (SF-539): > 100 µM (inactive)
GI50 (TK-10): > 100 µM (inactive)
GI50 (M19-MEL): > 100 µM (inactive)
GI50 (HOP-18): > 100 µM (inactive)
GI50 (ACHN): > 100 µM (inactive)
GI50 (HCT-116): > 100 µM (inactive)
GI50 (HCT-15): > 100 µM
GI50 (HOP-92): 7.13 µM (inactive)
GI50 (UO-31): > 100 µM (inactive)
GI50 (OVCAR-4): > 100 µM (inactive)
GI50 (HL-60): > 100 µM (inactive)
GI50 (HOP-62): > 100 µM (inactive)
GI50 (KM-20L2): > 100 µM (inactive)
GI50 (SK-MEL-2): > 100 µM (inactive)
GI50 (SK-OV-3): > 100 µM (inactive)
GI50 (786-0): > 100 µM (inactive)
GI50 (NCI-H23): > 100 µM (inactive)
GI50 (U-251): > 100 µM (inactive)
GI50 (XF498): > 100 µM (inactive)
GI50 (LOX IMVI): > 100 µM (inactive)
GI50 (HT-29): > 100 µM (inactive)
GI50 (K562): > 100 µM (inactive)
GI50 (CCRF-CEM): > 100 µM (inactive)
GI50 (SK-MEL-28): > 100 µM (inactive)
GI50 (LXFL 529): > 100 µM (inactive)
GI50 (RXF 393): > 100 µM (inactive)
GI50 (SN12C): > 100 µM (inactive)
GI50 (EKVX): > 100 µM (inactive)
GI50 (HCC 2998): > 100 µM (inactive)
GI50 (SF-295): > 100 µM (inactive)
GI50 (OVCAR-5): > 100 µM (inactive)
GI50 (OVCAR-8): > 100 µM (inactive)
GI50 (UACC-257): > 100 µM (inactive)
GI50 (SR): > 100 µM (inactive)
GI50 (M14): > 100 µM (inactive)
GI50 (MOLT-4): > 100 µM (inactive)
GI50 (NCI-H522): > 100 µM (inactive)

N/C(=N\O)N/N=C\c1c2ccccc2c(Cl)c2ccccc12
GI50 (SNB-19): 11.9 µM (inactive)
GI50 (SNB-78): 12 µM (inactive)
GI50 (UACC-62): 1.92 µM (inactive)
GI50 (SNB-75): 12.7 µM (inactive)
GI50 (A498): 13.5 µM (inactive)
GI50 (NCI-H460): 2.23 µM (inactive)
GI50 (IGROV-1): 3.38 µM (inactive)
GI50 (OVCAR-3): 3.47 µM (inactive)
GI50 (A549): 2.99 µM (inactive)
GI50 (SK-MEL-5): 5 µM (inactive)
GI50 (KM12): 4.85 µM (inactive)
GI50 (Malme-3M): 4.6 µM (inactive)
GI50 (DMS-273): 1.98 µM (inactive)
GI50 (DLD-1): 5.79 µM (inactive)
GI50 (SW-620): 5.22 µM (inactive)
GI50 (SF-539): 9.62 µM (inactive)
GI50 (TK-10): 11.8 µM (inactive)
GI50 (M19-MEL): 6.61 µM (inactive)
GI50 (HOP-18): 2.45 µM (inactive)
GI50 (ACHN): 4.33 µM (inactive)
GI50 (HCT-116): 3.66 µM (inactive)
GI50 (HCT-15): 5.82 µM
GI50 (HOP-92): 3.16 µM (inactive)
GI50 (UO-31): 10.7 µM (inactive)
GI50 (OVCAR-4): 3.78 µM (inactive)
GI50 (HL-60): 2.19 µM (inactive)
GI50 (HOP-62): 10.5 µM (inactive)
GI50 (KM-20L2): 2.02 µM (inactive)
GI50 (SK-MEL-2): 10.5 µM (inactive)
GI50 (RPMI-8226): 3.3 µM (inactive)
GI50 (SK-OV-3): 2.57 µM (inactive)
GI50 (CAKI-1): 5.52 µM (inactive)
GI50 (786-0): 12.6 µM (inactive)
GI50 (NCI-H23): 5.04 µM (inactive)
GI50 (U-251): 7.5 µM (inactive)
GI50 (XF498): 16.8 µM (inactive)
GI50 (LOX IMVI): 2.55 µM (inactive)
GI50 (HT-29): 3.78 µM (inactive)
GI50 (K562): 3.72 µM (inactive)
GI50 (CCRF-CEM): 5.77 µM (inactive)
GI50 (SF-268): 7.5 µM (inactive)
GI50 (SK-MEL-28): 13.5 µM (inactive)
GI50 (RXF 393): 1.22 µM (inactive)
GI50 (COLO 205): 3.67 µM (inactive)
GI50 (SN12C): 6.79 µM (inactive)
GI50 (NCI-H226): 2.13 µM (inactive)
GI50 (EKVX): 3.03 µM (inactive)
GI50 (HCC 2998): 3.66 µM (inactive)
GI50 (SF-295): 2.75 µM (inactive)
GI50 (OVCAR-5): 3.05 µM (inactive)
GI50 (OVCAR-8): 4.08 µM (inactive)
GI50 (UACC-257): 1.42 µM (inactive)
GI50 (M14): 12.1 µM (inactive)
GI50 (MOLT-4): 4.18 µM (inactive)
GI50 (DMS-114): 3.19 µM (inactive)
GI50 (NCI-H522): 3.8 µM (inactive)
